From ChEMBL document CHEMBL1201862, “PubChem BioAssay data set” (2004)
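Interpolation was linear, between the two tested concentrations surrounding the appropriate level; five concentrations were tested over 48 hours in 96-well plates. GI50 = concentration required for 50% inhibition of growth.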 The source made the active and inactive calls. Cut-off read from the data, not from the text of the source: active = GI50 up to about 1.1 µM and inactive = higher.

How the values were obtained:
Experiment in all cases: NCI-60 cell line screen, 48 h
CCRF-CEM = test system: CCRF-CEM
KM12 = test system: KM12
SK-MEL-28 = test system: SK-MEL-28
SF-268 = test system: SF-268
SK-MEL-5 = test system: SK-MEL-5
UO-31 = test system: UO-31
786-0 = test system: 786-0
TK-10 = test system: TK-10
A549 = test system: A549
SN12C = test system: SN12C
UACC-62 = test system: UACC-62
OVCAR-5 = test system: OVCAR-5
SW-620 = test system: SW-620
SF-295 = test system: SF-295
MDA-N = test system: MDA-N
MCF7 = test system: MCF7
DU-145 = test system: DU-145
PC-3 = test system: PC-3
HOP-62 = test system: HOP-62
SK-OV-3 = test system: SK-OV-3
MDA-MB-231 = test system: MDA-MB-231
T47D = test system: T47D
HOP-92 = test system: HOP-92
SK-MEL-2 = test system: SK-MEL-2
SNB-19 = test system: SNB-19
Hs-578T = test system: Hs-578T
K562 = test system: K562
HCT-116 = test system: HCT-116
A498 = test system: A498
MDA-MB-435 = test system: MDA-MB-435
U-251 = test system: U-251
M14 = test system: M14
EKVX = test system: EKVX
HT-29 = test system: HT-29
NCI-H23 = test system: NCI-H23
MOLT-4 = test system: MOLT-4
NCI-H460 = test system: NCI-H460
CAKI-1 = test system: CAKI-1
UACC-257 = test system: UACC-257
COLO 205 = test system: COLO 205
OVCAR-8 = test system: OVCAR-8
OVCAR-3 = test system: OVCAR-3
RPMI-8226 = test system: RPMI-8226
LOX IMVI = test system: LOX IMVI
IGROV-1 = test system: IGROV-1
HL-60 = test system: HL-60
SF-539 = test system: SF-539
NCI/ADR-RES = test system: NCI/ADR-RES
ACHN = test system: ACHN
SR = test system: SR
BT-549 = test system: BT-549
HCT-15 = test system: HCT-15
NCI-H226 = test system: NCI-H226

Measured: GI50

Cc1cc(C)c(C)c(-n2[nH]c(=O)n(C)c2=O)c1C
> 100 µM: HCT-15
inactive: CCRF-CEM > 100 µM | KM12 > 100 µM | SK-MEL-28 > 100 µM | SF-268 > 100 µM | SK-MEL-5 > 100 µM | UO-31 > 100 µM | 786-0 > 100 µM | TK-10 > 100 µM | A549 > 100 µM | SN12C > 100 µM | UACC-62 > 100 µM | OVCAR-5 > 100 µM | SW-620 > 100 µM | SF-295 > 100 µM | MDA-N > 100 µM | MCF7 > 100 µM | DU-145 > 100 µM | PC-3 > 100 µM | HOP-62 > 100 µM | SK-OV-3 > 100 µM | MDA-MB-231 > 100 µM | T47D > 100 µM | HOP-92 > 100 µM | SK-MEL-2 > 100 µM | SNB-19 > 100 µM | Hs-578T > 100 µM | K562 > 100 µM | HCT-116 > 100 µM | A498 > 100 µM | MDA-MB-435 > 100 µM | U-251 > 100 µM | M14 > 100 µM | EKVX > 100 µM | HT-29 > 100 µM | NCI-H23 > 100 µM | MOLT-4 > 100 µM | NCI-H460 > 100 µM | CAKI-1 > 100 µM | UACC-257 > 100 µM | COLO 205 > 100 µM | OVCAR-8 > 100 µM | OVCAR-3 > 100 µM | RPMI-8226 > 100 µM | LOX IMVI 99.3 µM | IGROV-1 > 100 µM | HL-60 > 100 µM | SF-539 > 100 µM | NCI/ADR-RES > 100 µM | ACHN > 100 µM | SR > 100 µM | BT-549 > 100 µM | NCI-H226 > 100 µM
